Read-outs that look alike come from different tables or passages of the source.
What was measured:
[1] = test system: Mycosphaerella graminicola; anamorph: Septoria tritici; assay: Fungicidal activity: leaf blotch of wheat (SEPTTR), wheat seedlings; assay type: in vivo; conditions: Zymoseptoria tritici
Experimental: Evaluation of Fungicidal Activity: Leaf Blotch of Wheat (Mycosphaerella Graminicola; Anamorph: Septoria tritici; Bayer Code […]) Technical grades of materials were dissolved in acetone, which were then mixed with nine volumes of water containing 110 ppm Triton X-100. The fungicide solutions were applied onto wheat seedlings using an automated booth sprayer to run-off. All sprayed plants were allowed to air dry prior to further handling. Wheat plants (variety Yuma) were grown from seed in a greenhouse in 50% mineral soil/50% soil-less Metro mix until the first leaf was fully emerged, with 7-10 seedlings per pot. These plants were inoculated with an aqueous spore suspension of Septoria tritici either prior to or after fungicide treatments. After inoculation the plants were kept in 100% relative humidity (one day in a dark dew chamber followed by two to three days in a lighted dew chamber at 20° C.) to permit spores to germinate and infect the leaf. The plants were then transferred to a greenhouse set at 20° C. for disease to develop. When disease symptoms were fully expressed on the 1st leaves of untreated plants, infection levels were assessed on a scale of 0 to 100 percent disease severity. Percent disease control was calculated using the ratio of disease severity on treated plants relative to untreated plants.

[2] = test system: Puccinia triticina; synonym: Puccinia recondita f. sp. tritici; assay: Fungicidal activity: wheat brown rust (PUCCRT), wheat seedlings; assay type: in vivo
Experimental: Technical grades of materials were dissolved in acetone, which were then mixed with nine volumes of water containing 110 ppm Triton X-100. The fungicide solutions were applied onto wheat seedlings using an automated booth sprayer to run-off. All sprayed plants were allowed to air dry prior to further handling. Wheat plants (variety Yuma) were grown from seed in a greenhouse in 50% mineral soil/50% soil-less Metro mix until the first leaf was fully emerged, with 7-10 seedlings per pot. These plants were inoculated with an aqueous spore suspension of Septoria tritici either prior to or after fungicide treatments. After inoculation the plants were kept in 100% relative humidity (one day in a dark dew chamber followed by two to three days in a lighted dew chamber at 20° C.) to permit spores to germinate and infect the leaf. The plants were then transferred to a greenhouse set at 20° C. for disease to develop. When disease symptoms were fully expressed on the 1st leaves of untreated plants, infection levels were assessed on a scale of 0 to 100 percent disease severity. Percent disease control was calculated using the ratio of disease severity on treated plants relative to untreated plants. Evaluation of Fungicidal Activity: Wheat Brown Rust (Puccinia […]; Synonym: Puccinia recondita f. Sp. Tritici; Bayer Code PUCCRT) Wheat plants (variety Yuma) were grown from seed in a greenhouse in 50% mineral soil/50% soil-less Metro mix until the first leaf was fully emerged, with 7-10 seedlings per pot. These plants were inoculated with an aqueous spore suspension of Puccinia triticina either prior to or after fungicide treatments. After inoculation the plants were kept in a dark dew room at 22° C. with 100% relative humidity overnight to permit spores to germinate and infect the leaf. The plants were then transferred to a greenhouse set at 24° C. for disease to develop. Fungicide formulation, application and disease assessment followed the procedures as described in the Example A.

[3] = 24 h, 100 ppm, 1 Day Protectant, wheat, read-out: Disease Control SEPTTR 1DP
[4] = 72 h, 100 ppm, 3 Day Curative, wheat, read-out: Disease Control SEPTTR 3DC
[5] = 24 h, 100 ppm, 1 Day Protectant, wheat, read-out: Disease Control PUCCRT 1DP
[6] = 72 h, 100 ppm, 3 Day Curative, wheat, read-out: Disease Control PUCCRT 3DC

Row | SMILES | pest or weed control at 100 ppm [1, 3] | pest or weed control at 100 ppm [1, 4] | pest or weed control at 100 ppm [2, 5] | pest or weed control at 100 ppm [2, 6] | pest or weed control at 100 ppm ([1]; 24 h, read-out: Disease Control SEPTTR 1DP) | pest or weed control at 100 ppm ([1]; 72 h, read-out: Disease Control SEPTTR 3DC) | pest or weed control at 100 ppm ([2]; 24 h, read-out: Disease Control PUCCRT 1DP) | pest or weed control at 100 ppm ([2]; 72 h, read-out: Disease Control PUCCRT 3DC)
1 | COc1ccnc(C(=O)N[C@H]2COC[C@@H](OCc3ccccc3)[C@H](OCc3ccccc3)[C@H](C)OC2=O)c1OCOC(C)=O [Compound 40] | 0 to 80% | 0 to 80% | 80 to 100% | 0 to 80% |  |  |  | 
2 | COc1ccnc(C(=O)N[C@@H]2COC[C@@H](OCc3ccccc3)[C@H](OCc3ccccc3)[C@H](C)OC2=O)c1OCOC(C)=O [Compound 41] | 0 to 80% | 0 to 80% | 0 to 80% |  |  |  |  | 
3 | CCCCO[C@H]1COC[C@H](NC(=O)c2nccc(OC)c2O)C(=O)O[C@@H](C)[C@@H]1O [Compound 42, N-((3S,7S,8S,9S)-7-butoxy-8-hydroxy-9-methyl-2-oxo-1,5-dioxonan-3-yl)-3-hydroxy-4-methoxypicolinamide] | 0 to 80% | 0 to 80% | 80 to 100% | 80 to 100% |  |  |  | 
4 | CCCCO[C@H]1COC[C@H](NC(=O)c2nccc(OC)c2O)C(=O)O[C@@H](C)[C@@H]1OC(=O)C(C)C [Compound 46, (3S,6S,7S,8S)-8-butoxy-3-(3-hydroxy-4-methoxypicolinamido)-6-methyl-4-oxo-1,5-dioxonan-7-yl isobutyrate] |  |  |  |  | 80 to 100% | 80 to 100% | 80 to 100% | 80 to 100%
5 | COc1ccnc(C(=O)N[C@H]2COC[C@H](OCc3ccccc3)[C@@H](OCc3ccccc3)[C@@H](C)OC2=O)c1O [Compound 49] | 0 to 80% | 0 to 80% | 0 to 80% | 0 to 80% |  |  |  | 
6 | CCCCO[C@H]1COC[C@H](NC(=O)c2nccc(OC)c2OCOC(C)=O)C(=O)O[C@@H](C)[C@@H]1OCC(C)C [Compound 50] | 80 to 100% | 80 to 100% | 80 to 100% | 80 to 100% |  |  |  | 
7 | COc1ccnc(C(=O)N[C@H]2COC[C@H](OCc3ccccc3)[C@@H](OCc3ccccc3)[C@@H](C)OC2=O)c1OCOC(C)=O [Compound 51] | 0 to 80% | 0 to 80% | 0 to 80% | 0 to 80% |  |  |  | 
8 | COc1ccnc(C(=O)N[C@H]2COC[C@H](OCCCc3ccccc3)[C@@H](OCCCc3ccccc3)[C@H](C)OC2=O)c1O [Compound 59] | 80 to 100% | 0 to 80% | 80 to 100% | 80 to 100% |  |  |  | 
9 | CCC(C)(C)O[C@H]1[C@H](C)OC(=O)[C@@H](NC(=O)c2nccc(OC)c2O)COC[C@@H]1OCC(C)C [Compound 79] | 80 to 100% | 80 to 100% | 80 to 100% | 80 to 100% |  |  |  | 
10 | COc1ccnc(C(=O)N[C@H]2COC[C@H](Oc3cc(C)cc(C)c3)[C@@H](Oc3cc(C)cc(C)c3)[C@H](C)OC2=O)c1O [Compound 198] | 80 to 100% |  | 0 to 80% |  |  |  |  | 
11 | COc1ccc(O[C@H]2[C@H](C)OC(=O)[C@@H](NC(=O)c3nccc(OC)c3O)COC[C@@H]2OC(=O)C(C)C)cc1 [Compound 199] | 0 to 80% |  | 80 to 100% |  |  |  |  | 
12 | COc1ccc(O[C@H]2[C@H](C)OC(=O)[C@@H](NC(=O)c3nccc(OC)c3O)COC[C@@H]2Oc2ccc(OC)cc2)cc1 [Compound 201] | 80 to 100% | 0 to 80% | 80 to 100% |  |  |  |  | 
13 | CCCO[C@H]1COC[C@H](NC(=O)c2nccc(OC)c2O)C(=O)O[C@@H](C)[C@@H]1Oc1ccccc1 [Compound 202] | 80 to 100% | 80 to 100% | 80 to 100% | 80 to 100% |  |  |  | 
14 | CCCO[C@H]1[C@H](C)OC(=O)[C@@H](NC(=O)c2nccc(OC)c2O)COC[C@@H]1Oc1ccccc1 [Compound 203] | 80 to 100% | 80 to 100% | 80 to 100% | 80 to 100% |  |  |  | 

— patent US9144239B2, “Macrocyclic picolinamides as fungicides” (DOW AGROSCIENCES LLC, priority 2012, dated 2015)
